Experimental data: patent publication US12037324B2, “Biarylmethyl heterocycles” (Université de Montréal, priority 2016, dated 2024)

Assays:
Format in all cases: cell-based
hAT1R [1] = molecular target: T1, hAT1R (Homo sapiens, UniProt P30556); test: BRET Gq biosensor assay, agonist response, HEK293 cells; details: section of the 42nd table directly before the BRET P63 section
T1 sequence (P30556 1-359): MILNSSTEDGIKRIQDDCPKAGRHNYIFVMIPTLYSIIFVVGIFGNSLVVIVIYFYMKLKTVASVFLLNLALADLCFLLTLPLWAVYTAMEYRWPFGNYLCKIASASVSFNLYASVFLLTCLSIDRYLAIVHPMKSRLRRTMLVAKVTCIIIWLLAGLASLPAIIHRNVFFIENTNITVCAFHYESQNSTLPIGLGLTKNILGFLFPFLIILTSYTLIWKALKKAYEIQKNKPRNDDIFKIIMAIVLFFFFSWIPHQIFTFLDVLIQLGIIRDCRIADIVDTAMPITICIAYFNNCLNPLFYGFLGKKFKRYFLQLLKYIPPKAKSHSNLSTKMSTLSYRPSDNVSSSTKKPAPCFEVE
Protocol: BRET β-arrestin2 and Gq Activation Assays
In another aspect of the invention, association of the ATIR with signaling proteins is assessed using bioluminescence resonance energy transfer assays (Stephane Angers, Ali Salahpour et al. 2002). This technology measures the association between bioluminescent and fluorescent protein tags.
Several of the plasmid constructs used in BRET experiments were previously described. Briefly, the coding sequence of β-arrestin2 was fused to Renilla luciferase II to generate β-arrestin2-Rluc (Quoyer, Janz et al. 2013). The membrane targeting motif from K-Ras, CAAX motif (GKKKKKKSKTKCVIM), was fused to Renilla GFP to create rGFP-CAAX plasmid (Namkung Y et al., Nat Commun (2016) 7, 12178). The Renilla luciferase II was inserted in the Gaq protein to generate Gaq-Rluc (Breton, Sauvageau et al. 2010). The Gγ1 protein was tagged with GFP10 to obtain GFP-Gyl, using the same strategy described previously for GFP-Gy2 (Gales, Rebois et al. 2005). The Gaq binding domain of the p63RhoGEF protein (amino acids 295-502) was fused to Renilla luciferase II to create P63-Rluc. Finally, the hAT1R plasmid construct encoding the receptor was generated by optimizing the coding sequence of human angiotensin II receptor (GeneOptimizer from ThermoFisher), and adding an artificial cleavable signal peptide from bovine prolactin ([…]) in N-terminus of the receptor to increase cell surface expression.
Gq Biosensor Assay HEK293 cells were cultured in DMEM supplemented with Penicillin-Streptomycin and 10% fetal bovine serum. Two days before the BRET experiment, HEK293 cells were transfected with hAT1R expression plasmid (200 ng/well) as well as Gaq-Rluc (100 ng/well), Gβ1 (375 ng/well) and GFP-Gγ1 (625 ng/well), using linear polyethylenimine 25 kDa (PEI) at a PEI:DNA ratio of 3:1. Transfected cells were directly seeded in 96-well plates, at a density of 35 000 cells per well, and maintained in culture for the next 48 h.
BRET experiments were carried out subsequently using the following procedures: cells were washed once with Tyrode's buffer (137 mM NaCl, 1 mM CaCl2, 0.9 mM KCl, […], 3.6 mM NaH2PO4, 5.5 mM glucose, 12 mM NaHCO3, and 25 mM HEPES, pH 7.4) and 90 μl of Tyrode's buffer was added to each well. Cells were equilibrated in their new buffer at room temperature for at least 30 minutes. Following the equilibration period, the coelenterazine substrate was first added to the cells, 10 μl per well of a 10×solution (prolume purple coelenterazine at a final concentration of 2 μM), immediately followed by compound addition using the HP D300 digital dispenser from Tecan (10 singlicate concentrations). Cells were incubated for 5 min at room temperature and BRET readings were then collected using a Synergy Neo Multi-Mode reader from BioTek with BRET2 filters 410/515, to record agonist response. […] A second reading was collected 5 min after this second addition, using the Synergy Neo Multi-Mode reader from BioTek with BRET2 filters 410/515, to record antagonist response. The BRET signal was determined by calculating the ratio of the light emitted by GFP (515 nm) over the light emitted by the Rluc (410 nm). To analyze agonist response, BRET signal values were converted into percentage of activation using the non-stimulated control as 0% and AngII maximal response as 100%. Sigmoidal concentration-response curves were generated with those normalized values using a 4-parameter logistic equation (IDBS ActivityBase software), to determine EC50 of the different compounds. In the case of antagonist response analysis, BRET signal values were converted into percentage of inhibition using the fixed dose of AngII (corresponding to the EC50) as 0% and non-stimulated control as 100%. Sigmoidal concentration-response curves were generated with those normalized values using a 4-parameter logistic equation (IDBS ActivityBase software), to determine IC50 of the different compounds.

AGTR1 = molecular target: T2, AGTR1 (Homo sapiens, UniProt P30556); test: DiscoveRx β-arrestin2 recruitment assay (enzyme complementation, Pathunter CHO-K1 AGTR1 β-arrestin cell line); details: DiscoveRx β-arrestin2 recruitment; for DiscoveRx β-arrestin2 Ymax (%): maximal response
T2 construct: host or cells: Pathunter CHO-K1 AGTR1 β-arrestin cell line (CHO-K1)
T2 sequence (P30556 1-359): T1 sequence (P30556 1-359)
In short: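 Chemiluminescent enzyme-complementation read-out of β-arrestin2 recruitment to AGTR1 in engineered CHO-K1 cells after 90 min compound exposure at 37° C. Values are 4-parameter logistic EC50s in agonist mode, IC50s in antagonist mode, with efficacy relative to the maximal All response.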

hAT1R [2] = molecular target: T1, hAT1R; test: BRET β-arrestin2 biosensor assay, higher receptor expression (hAT1R 5 ng/well), HEK293 cells; details: for EC50: High AT1R Expression

Compound	EC50 (hAT1R [1]) [nM]	EC50 (AGTR1) [nM]	DiscoveRx β-arrestin2 Ymax (%) (AGTR1)	BRET β-Arrestin2 High AT1R Expression Ymax (%) (hAT1R [2])	EC50 (hAT1R [2]) [nM]
CCCCC(=O)N(Cc1ccc(-c2cc(-c3ccccc3)ccc2-c2nn[nH]n2)cc1)C1(C(=O)O)Cc2ccccc2C1 [Example 279]	> 100000	190	33.7	82.6	210
CCCCC(=O)N(Cc1ccc(-c2cc(-c3ccccc3)ccc2-c2noc(=O)[nH]2)cc1)C1(C(=O)OC)CCCCC1 [Example 280, Methyl 1-(N-((6′-(5-oxo-4,5-dihydro-1,2,4-oxadiazol-3-yl)-[1,1′:3′,1″-terphenyl]-4-yl)methyl)pentanamido)cyclohexanecarboxylate]	2870	904	35.2	75.7	699
CCCCC(=O)N(Cc1ccc(-c2cc(-c3ccccc3)ccc2-c2noc(=O)[nH]2)cc1)C1(C(=O)O)CCCCC1 [Example 281]	232	41.6	47.4	93.1	10.5
CCCCC(=O)N(Cc1ccc(-c2cc(-c3ccccc3)ccc2-c2nn[nH]n2)cc1)[C@]1(C(=O)O)CC[C@@H](O)CC1 [Example 283, (1R,4R)-1-(N-((6′-(2H-Tetrazol-5-yl)-[1,1′:3′,1″-terphenyl]-4-yl)methyl)pentan-amido)-4-hydroxycyclohexanecarboxylic acid]	155	44.5	57.5	88.5	22.8
CCCCC(=O)N(Cc1ccc(-c2cc(-c3ccccc3)ccc2-c2nn[nH]n2)cc1)[C@]1(C(=O)O)CC[C@H](O)CC1 [Example 284, (1S,4S)-1-(N-((6′-(2H-Tetrazol-5-yl)-[1,1′:3′,1″-terphenyl]-4-yl)methyl)pentanamido)-4-hydroxycyclohexanecarboxylic acid]	151	21.1	62.7	92.9	33
CCCCC(=O)N(Cc1ccc(-c2cc(Oc3ccccc3)ccc2-c2nn[nH]n2)cc1)C1(C(=O)O)CCCCC1 [Example 285, 1-(N-((5′-Phenoxy-2′-(2H-tetrazol-5-yl)-[1,1′-biphenyl]-4-yl)methyl)pentanamido)cyclohexanecarboxylic acid]	1540	66.4	24.8	33.4	57.3
CCCCC(=O)N(Cc1ccc(-c2cc(Oc3cccnc3)ccc2-c2nn[nH]n2)cc1)C1(C(=O)O)CCCCC1 [Example 286]	302	113	35.8	45.3	47.1
CCCCC(=O)N(Cc1ccc(-c2cc(Oc3cccc(OC(F)(F)F)c3)ccc2-c2nn[nH]n2)cc1)C1(C(=O)O)CCCCC1 [Example 287]	> 100000	175	30.5	45.9	54.1
CCCCC(=O)N(Cc1ccc(-c2cc(-c3cnn(C)c3)ccc2-c2nn[nH]n2)cc1)C1(C(=O)O)CCCCC1 [Example 288, 1-(N-((5′-(1-Methyl-1H-pyrazol-4-yl)-2′-(2H-tetrazol-5-yl)-[1,1′-biphenyl]-4-yl)methyl)pentanamido)cyclohexanecarboxylic acid]	> 100000	186	29.6	69.2	474
CCCCC(=O)N(Cc1ccc(-c2cc(-c3cc(F)cc(F)c3)ccc2-c2nn[nH]n2)cc1)C1(C(=O)O)CCCCC1 [Example 289]	546	48.2	51.1	85.2	13
CCCCC(=O)N(Cc1ccc(-c2cc(-c3cccnc3OC)ccc2-c2nn[nH]n2)cc1)C1(C(=O)O)CCCCC1 [Example 290]	503	88.5	30.7	31.2	67.3
CCCCC(=O)N(Cc1ccc(-c2cc(-c3ccc(NC(C)=O)cc3)ccc2-c2nn[nH]n2)cc1)C1(C(=O)O)CCCCC1 [Example 291]	> 100000	134	10.0	9.6	1650
CCCCC(=O)N(Cc1ccc(-c2cc(-c3ccc4ncccc4c3)ccc2-c2nn[nH]n2)cc1)C1(C(=O)O)CCCCC1 [Example 292]	> 100000	177	32.1	36.5	72.2
CCOc1nc2cccc(C(=O)O)c2n1Cc1ccc(-c2cc(N3CCCC(F)(F)C3)ccc2C(=O)O)cc1 [Example 315]	> 100000	242	21.5	29.1	1840
CCOc1nc2cccc(C(=O)OC)c2n1Cc1ccc(-c2cc(-c3ccccc3)ccc2-c2noc(=O)[nH]2)cc1 [Example 316, methyl 2-ethoxy-1-((6′-(5-oxo-4,5-dihydro-1,2,4-oxadiazol-3-yl)-[1,1′:3′,1″-terphenyl]-4-yl)methyl)-1H-benzo[d]imidazole-7-carboxylate]	> 100000	53	51.6	97.5	46.2
O=C(O)c1cccc2nc(O)n(Cc3ccc(-c4cc(-c5ccccc5)ccc4-c4nn[nH]n4)cc3)c12 [Example 317]	17100	87.2	51.5	39.8	319
CCOc1nc2cccc(C(=O)O)c2n1Cc1ccc(-c2cc(-c3cccnc3OC)ccc2C(=O)O)cc1 [Example 318]	552	47.5	54.6	93.9	132
CCOc1nc2cccc(C(=O)O)c2n1Cc1ccc(-c2cc(-c3ccc(C(=O)N(C)C)cc3)ccc2C(=O)O)cc1 [Example 320]	> 100000	40.7	55.7	86.8	173
